Common to all, as to assay: DTP human tumour cell line panel, 48 h
Assay [1] has as its system MOLT-4.
Assay [2] has as its system MDA-MB-231.
For assay [3], the system named is A549.
Assay [4] deals with NCI/ADR-RES.
For assay [5], the system named is HT-29.
Assay [6] relates to MDA-MB-435.
Assay [7] relates to SK-OV-3.
Assay [8] has as its system RPMI-8226.
Assay [9] has as its system CAKI-1.
Assay [10] has as its system ACHN.
Assay [11] has as its system K562.
In assay [12] the test system is EKVX.
The subject of assay [13] is UACC-62.
The test system of assay [14] is HCC 2998.
The subject of assay [15] is 786-0.
Assay [16] deals with SW-620.
For assay [17], the system named is SF-539.
Assay [18] has as its system RXF 393.
The subject of assay [19] is Malme-3M.

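Method: 48-hour compound exposure of cells in 96-well plates, five concentrations, linear interpolation of endpoints. At the GI50, growth is halved.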 Activity calls are given as the source filed them. Cut-off read from the data, not from the text of the source: active = GI50 up to about 1.1 µM and inactive = higher.

As a reminder, the GI50 is the concentration that inhibits growth by half. Consider `COC1/C=C/C(C)C(C(C)C(OC)C(C)CCC(=O)C(C)C(CC(=O)O)OC)OC(=O)/C=C/C=C(\C)CC(OC)CC2=CC(=O)O[C@H](C2)C(C)C(OC)CC(OC)/C=C/C(C)C(OC)C1` (some centres undefined), for which the GI50 in assay [1] is 1.46 µM (inactive); in assay [2], 0.45 µM (active); in assay [3], 0.299 µM (active); in [4] it was 2.66 µM (inactive); in [5], 0.916 µM (active); in [6] it was 0.265 µM (active). The GI50 was 0.695 µM (active) in [7]; 0.219 µM (active) in [8]; 0.0621 µM (active) in [9]; 0.562 µM (active) in [10]; 1.79 µM (inactive) in [11]; 0.396 µM (active) in assay [12]. Also, the GI50 in [13] was 0.315 µM (active); in assay [14], 2.62 µM (inactive); in assay [15], 0.286 µM (active); in assay [16], 0.348 µM (active).

For the molecule `N/N=C(\CCN1CCCC1)CC(c1ccccc1)c1c(O)c2ccccc2oc1=O` (centres undefined), the GI50 in [1], in assay [3], in [5], in [7], in assay [8] and in assay [17] was > 100 µM (inactive) throughout. Moreover, the GI50 in assay [9] was > 100 µM (inactive); in [10], > 100 µM (inactive); in assay [11], > 100 µM (inactive); in assay [12], 44.2 µM (inactive); in [18] it was > 100 µM (inactive); in assay [13], > 100 µM (inactive). In addition, the GI50 in [14], in [19], in assay [15] and in assay [16] was > 100 µM (inactive) in each case.

Consider `C=CC(C)(C)C(=C)C(=O)Nc1ccccc1I`, for which the GI50 in assay [2], in [3], in assay [4], in assay [5], in [6] and in assay [7] was > 100 µM (inactive) in each case. Besides, the GI50 was 98.4 µM (inactive) in assay [8]; > 100 µM (inactive) in assay [9]; > 100 µM (inactive) in [10]; > 100 µM (inactive) in assay [11]; 83.9 µM (inactive) in assay [12]; > 100 µM (inactive) in assay [18]. Also, the GI50 was > 100 µM (inactive) in [13], > 100 µM (inactive) in assay [14], 2.29 µM (inactive) in [15] and > 100 µM (inactive) in [16].

Consider `O=[N+]([O-])c1cccc(/C=N/C23CC4CC(CC(C4)C2)C3)c1`, for which the GI50 is 74.1 µM (inactive) in assay [1]; > 100 µM (inactive) in assay [3]; > 100 µM (inactive) in assay [5]; > 100 µM (inactive) in assay [7]; > 10 µM (inactive) in assay [8]; > 100 µM (inactive) in assay [17]. The GI50 was > 100 µM (inactive) in assay [9]; > 100 µM (inactive) in [10]; 29.7 µM (inactive) in assay [11]; > 100 µM (inactive) in [12]; > 100 µM (inactive) in assay [18]; > 100 µM (inactive) in [13]. Further, the GI50 is > 100 µM (inactive) in assay [14], > 100 µM (inactive) in [19], > 100 µM (inactive) in assay [15] and 57.1 µM (inactive) in [16].

On to `Cc1nc2ccccc2[s+]c1-c1cnc(NC#N)nc1C(=O)Nc1cccc(Cl)c1`, for which the GI50 in [1], in assay [3], in assay [5], in assay [7], in assay [8] and in assay [17] was > 100 µM (inactive) throughout. Besides, the GI50 in assay [9], in [10], in assay [11], in assay [12], in assay [18] and in assay [13] was > 100 µM (inactive) each time. The GI50 in assay [14], in assay [19], in assay [15] and in assay [16] was > 100 µM (inactive) each time.

For the molecule `O=S(=O)(N/N=C/c1ccc(Cl)cc1Cl)c1ccccc1`, the GI50 is 34.7 µM (inactive) in assay [1]; > 100 µM (inactive) in [3]; 80.2 µM (inactive) in assay [5]; 91.8 µM (inactive) in assay [7]; 84.7 µM (inactive) in assay [8]; 77.1 µM (inactive) in [17]. For the same molecule, the GI50 is 59.4 µM (inactive) in assay [9]; > 100 µM (inactive) in [10]; 59 µM (inactive) in [11]; > 100 µM (inactive) in assay [12]; 77.1 µM (inactive) in assay [18]; > 100 µM (inactive) in assay [13]. Also, the GI50 in assay [14] was > 100 µM (inactive); in assay [19] it was > 100 µM (inactive); in [15], > 100 µM (inactive); in assay [16], 78.9 µM (inactive).

With `Cc1ccc(S(=O)(=O)OC2CS[S+]([O-])CC2OS(=O)(=O)c2ccc(C)cc2)cc1` (centres undefined), the GI50 was 2.23 µM (inactive) in [1]; 19 µM (inactive) in [3]; 29.6 µM (inactive) in assay [5]; 21.7 µM (inactive) in [7]; 5.74 µM (inactive) in [8]; 15.2 µM (inactive) in [17]. The GI50 in assay [9] is 12.9 µM (inactive); in [10], 17 µM (inactive); in assay [11], 4.02 µM (inactive); in [12] it was 21.1 µM (inactive); in [18], 8.22 µM (inactive); in assay [13], 15.3 µM (inactive). Also, the GI50 in [14] is 17.1 µM (inactive); in [19], 14.6 µM (inactive); in assay [15] it was 16.8 µM (inactive); in [16] it was 6.55 µM (inactive).

For `N#CC(C(=O)C(=O)C(C#N)c1ccc(Br)cc1)c1ccc(Br)cc1` (centres undefined), the GI50 was 4.4 µM (inactive) in assay [1]; 23.3 µM (inactive) in assay [3]; 8.59 µM (inactive) in assay [5]; 15.7 µM (inactive) in [7]; 4.65 µM (inactive) in [8]; 15.5 µM (inactive) in assay [17]. Besides, the GI50 in [9] was 21 µM (inactive); in assay [10], 12.6 µM (inactive); in assay [11], 12.6 µM (inactive); in assay [12] it was 12 µM (inactive); in [18], 4.26 µM (inactive); in [13] it was 1.51 µM (inactive). Besides, the GI50 in [14] was 12 µM (inactive); in assay [19], 13.6 µM (inactive); in [15], 12.9 µM (inactive); in [16], 14.7 µM (inactive).

As to `O=C(N/C(=C\c1ccc(/C=C(\NC(=O)c2ccccc2)c2nc3ccccc3[nH]2)cc1)c1nc2ccccc2[nH]1)c1ccccc1`, the GI50 in assay [1], in [3], in assay [5], in assay [7], in [8] and in [17] was > 100 µM (inactive) throughout. For the same molecule, the GI50 in [9], in [10], in [11], in [12], in assay [18] and in assay [13] was > 100 µM (inactive) throughout. Also, the GI50 in [14], in assay [19], in assay [15] and in [16] was > 100 µM (inactive) each time.

(Values after ChEMBL document CHEMBL1201862, “PubChem BioAssay data set” (2004).)
